Laboratory results taken from patent US11952328B2, “Selective ship inhibitors for treating disease” (THE RESEARCH FOUNDATION FOR THE STATE UNIVERSITY OF NEW YORK, priority 2018, dated 2024).

Test system: RMA-Rael cells
Experiment: Overall survival of RMA-Rael tumor challenged hosts (Kaplan-Meier)
Format: in vivo, mice
Procedure: FIGS. 6A-6I show the survival of tumor bearing mice treated with a SHIP inhibitor. […] Hosts were treated on the day of tumor challenge and the following day as in FIG. 1. The 2-day treatment course was repeated each week for the duration of survival. […] Mice received either NK cell depleting, anti-NK1.1 antibody (PK136), or isotype control antibody prior to tumor challenge (5×10^5 RMA-Rael). The hosts received SHIP inhibitor two consecutive days each week until death. […] The hosts were treated on the day of tumor challenge and the following day as in FIG. 1. The 2-day treatment course was repeated each week for the duration of survival.
The most clinically relevant endpoint in any cancer therapy study is not a measured decrease in tumor burden, but instead, a significant increase in survival promoted by the treatment.
In order to further define 3AC′s capacity to control malignancy through immunomodulatory effects the capacity of 3AC to promote resistance of NSG, TcRa^−/− and NK cell depleted hosts to RMA-Rael tumor challenge was examined. As before, mice received treatment with 3AC or vehicle for two consecutive days each week followed by a five-day cessation of treatment to prevent disarming and/or exhaustion. This treatment strategy was continued indefinitely and survival was monitored (FIG. 6A). To confirm that, in addition to the chemotherapeutic effect documented in FIG. 5, 3AC-induced enhanced-NK and -T cell activity is important for the survival benefit following tumor challenge, NSG mice (mice deficient of all lymphocyte lineages) were challenged.
To determine if T cells are required for the 3AC-mediated survival benefit, the same expirement using TcRa^−/− hosts that lack a TcR-ab^+ T cell compartment was repeated. […] To directly test the requirement for an intact NK cell compartment for 3AC-mediated increased survival after tumor challenge, the experiment as described in FIG. 6A were repeated challenging C57BL/6 hosts that were first depleted of
NK cells. Here, prior to tumor challenge, hosts were injected with either NK cell depleting anti-NK1.1 antibody (C57BL/6-DNK) or with antibody isotype control (C57BL/6-iso) (FIG. 6B).
The SHIP1 inhibitor 3AC was then tested in a genetic model in which the molecular target, SHIP1, was absent in a key target population of T cells, which are required for protection in the RMA-Rael lymphoma challenge model. […] Thus, SHIP inhibitor protection after tumor challenge is lost when the T cell compartment lacks the molecular target (SHIP1) in T cells.
There are two paralogs of SHIP: SHIP1 which is expressed in a limited range of tissues including hematopoietic cells, and SHIP2 which is expressed by a wide array of cell types. To determine if SHIP2 may also play a role in host defense against malignancy as described above tumor bearing mice were treated with small-molecule inhibitors against SHIP2 as well. […] Stem Cells. (2015); 33: 848-858; Hoekstra, E. et al., Lipid phosphatase SHIP2 functions as oncogene in colorectal cancer by regulating PKB activation. Oncotarget. (2016) 7: 73525-73540). Like 3AC, pan-SHIP1/2 inhibitors such as K118 are also cytotoxic for RMA-Rael cells in vitro. The pan SHIP1/2 inhibitory compounds K118 and K149 were compared to the SHIP1 selective compound 3AC.
Simultaneous inhibition of both SHIP1and SHIP2 may be deleterious to the immune response promoted by 3AC. […] In the study, the SHIP1 selective inhibitor 3AC that provides for protection after RMA-Rael challenge was simulataneously co-administered.

## CC(C)CCC[C@@H](C)[C@H]1CC[C@H]2[C@@H]3CCC4C[C@H](N)CC[C@]4(C)[C@H]3CC[C@]12C (stereo partly drawn) [Compound 3AC, 3-α-aminocholestane]
3AC-treated NK cell depleted C57BL/6 (anti-NK1.1) vs 3AC-treated isotype control hosts
  overall survival: significantly compromised survival
C57BL/6 hosts, 1×10^5 RMA-Rael, FIG. 6H
  long-term survival: long-term survival in a subset of hosts
C57BL/6 hosts, 1×10^5 RMA-Rael, FIG. 6H, vs vehicle
  overall survival (protection): extended survival
C57BL/6 hosts, 5×10^5 RMA-Rael, two consecutive days each week, five-day cessation, vs vehicle
  overall survival: significantly increased survival
CD4CreSHIP flox/flox mice treated with 3AC vs vehicle-treated SHIP+/flox mice
  overall survival: comparable survival
NSG mice, pulsatile dosing, vs vehicle-treated NSG
  median survival: very modest increase
SHIP flox/flox mice treated with 3AC vs 3AC-treated CD4CreSHIP flox/flox and vehicle-treated SHIP+/flox
  overall survival: enhanced survival
TcRa−/− hosts, pulsatile dosing, compared to 3AC treatment of C57BL/6 hosts
  overall survival: did not prolong survival
Subpopulation of 3AC treated C57BL/6 mice, pulsatile dosing, tumor uniformly lethal in vehicle mice
  long term survival: durable, long term survival without any evidence of tumor burden
